Experimental data published in patent publication US20260049078A1, “DIFLUORO- AND TRIFLUORO-ACETYL HYDRAZIDES AS SELECTIVE HDAC6 INHIBITORS” (ITALFARMACO S.P.A., priority 2022, published 2026).

What was measured:
recombinant human HDAC6 = recombinant human HDAC6 (Homo sapiens (Human), UniProt Q9UBN7); assay: Enzyme inhibitory activity assay on HDAC6; type: biochemical; details: 30 minutes preincubation at 25° C.
Description: (§1) For each test compound, 100× concentrated DMSO solutions at 8 doses were prepared and then diluted in assay buffer (25 mM Tris-HCl, pH 8, 130 mM NaCl, 0.05% Tween-20, 10% Glycerol) to obtain 5× concentrated solutions in relation to the final concentrations (typical final concentration range—6.4-200000 nM or 0.18-50000 nM, final DMSO content—1%). Then 10 μL solution of each test compound concentration were placed on a 96-well plate in triplicate and 15 μL of 3.33× concentrated enzyme solution in the assay buffer containing 3.33× concentrated BSA (final BSA concentration 1 mg/mL) and, in case of HDAC6, 3.33× concentrated TCEP (final TCEP concentration—200 μM) were added to each well. After a period of preincubation at 25° C. (30 minutes for HDAC6 and 120 minutes for HDAC1), 25 μL of solution containing the substrate were added. As substrate, FLUOR DE LYS® deacetylase substrate (Enzo Life Sciences, cat: BML-KI104, FdL), FLUOR DE LYS®-Green substrate (Enzo Life Sciences, cat: BML-KI572, FdL_G) or Boc-Lys(Tfa)-AMC (Bachem, cat: 4060676.005, Tfal)—2× concentrated solution in assay buffer were used. Following a reaction period (30 minutes at 25° C.), 50 μL of the development solution consisting of concentrate FLUOR DE LYS® developer I (Enzo Life Sciences, ca: BML-KI105), diluted 200 times in buffer (50 mM Tris-HCl, pH 8, 137 mM NaCl, 2.7 mM KCl, 1 mM MgCl2) plus 2 μM TSA was added and, after 25 minutes at room temperature in the dark, using the Victor 1420 Multilabel Counter Perkin Elmer Wallac instrument, the fluorescence reading was carried out (excitation/emission: 485/535 nM—Fluor de Lys Green, 355/460 nM—Tfal, Fluor de Lys).
(§2) Enzymatic activity on recombinant human HDAC6 and HDAC1 was evaluated (Table 2) for each synthesized compound.

recombinant human HDAC1 = recombinant human HDAC1 (Homo sapiens (Human), UniProt Q13547); assay: Enzyme inhibitory activity assay on HDAC1; type: biochemical; details: 120 minutes preincubation at 25° C.
Sequence of recombinant human HDAC1 (Q13547 whole entry): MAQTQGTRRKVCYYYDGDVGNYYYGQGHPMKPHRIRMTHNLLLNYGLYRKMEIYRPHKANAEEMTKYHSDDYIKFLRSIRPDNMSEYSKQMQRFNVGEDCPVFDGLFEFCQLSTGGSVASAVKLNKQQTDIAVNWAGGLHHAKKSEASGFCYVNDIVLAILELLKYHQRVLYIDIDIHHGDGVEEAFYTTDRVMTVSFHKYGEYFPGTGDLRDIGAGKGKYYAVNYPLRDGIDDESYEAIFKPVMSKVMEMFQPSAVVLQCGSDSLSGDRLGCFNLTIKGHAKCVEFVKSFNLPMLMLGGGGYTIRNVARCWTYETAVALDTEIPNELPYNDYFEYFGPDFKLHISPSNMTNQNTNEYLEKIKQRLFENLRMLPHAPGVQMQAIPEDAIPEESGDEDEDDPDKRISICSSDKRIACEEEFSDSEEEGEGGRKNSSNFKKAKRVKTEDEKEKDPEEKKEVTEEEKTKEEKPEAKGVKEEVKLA
Description: as §1, §2

SH-SY5Y cells = assay: In vitro α-tubulin acetylation in undifferentiated SH-SY5Y cells; type: cell-based; details: overnight, @1uM
Description: SH-SY5Y cells (ATCC, cod. CRL-2266) are plated in optical optimized 96-well black plates (Perkin Elmer, cod. 6055302) at 5000 cells/well in 100 μl/well of growth medium (DMEM/F12 (1:1)+10 mM hepes+100 units/mL of penicillin+100 μg/mL of streptomycin+10% of inactivated Foetal calf serum (FCS, Hyclone)).
After 24 h of seeding, cells are incubated overnight with the selected molecules at 0.1-1-10 μM. ACY1083 and Tubastatin A, at the same doses, are tested as positive controls of α-Tubulin acetylation, while untreated cells are incubated with 0.01% DMSO and indicated as CTRL DMSO.
At the end of the incubation, cells are fixed adding 100 μL/well of formaldehyde 8% in PBS (final formaldehyde concentration 4% in 200 μL/well) directly in the 100 μL/well of medium, for 30 min at RT. The fixing solution is carefully removed, and wells are washed twice with PBS for 10 min each. Fixed cells are kept in PBS at 4° C. until staining.
The day of the staining experiment, the fixed cells are incubated 60 min with the blocking buffer (PBS with 5% FCS+0.3% Triton™ X-100). While blocking, primary antibodies are prepared by diluting 1:200 the α-Tubulin Alexa Fluor 488 Conjugate (Cell Signaling, cod. 5063) antibody and 1:50 Acetyl-α-Tubulin Alexa Fluor 647 Conjugate (Cell Signaling, cod. 81502) antibody in the Antibody Dilution Buffer (PBS with 1% BSA+0.3% Triton™ X-100). Once the blocking solution is aspirated, the diluted primary antibodies are applied and incubated overnight at 4° C. The next day, cells are rinsed twice with PBS (10 min each), incubated 5 min with 300 nM DAPI in PBS, and then rinsed twice with PBS (10 min each). For each treatment, 3 wells are stained.
Images of the stained cells are acquired by means of the IN Cell Analyzer 2500 HS Instrument, using: far red channel for Acetyl-α-Tubulin staining (exposure 0.02 sec), green channel for α-Tubulin staining (exposure 0.02 sec), and blue channel for DAPI (nuclei) staining. For each well, 10 images are acquired.
Images of stained cells are analysed with the InCarta software (Molecular Devices) for obtaining fluorescence intensity considering whole cells. For each treatment, mean values of Cell intensity—Bckg (Cell), for both staining, are obtained using the InCarta raw data by FOV (Field of View). Results are expressed as fold increase of the ratio of acetylated tubulin and total tubulin towards control (CTRL DMSO).

Sequence of recombinant human HDAC6 (Q9UBN7 whole entry): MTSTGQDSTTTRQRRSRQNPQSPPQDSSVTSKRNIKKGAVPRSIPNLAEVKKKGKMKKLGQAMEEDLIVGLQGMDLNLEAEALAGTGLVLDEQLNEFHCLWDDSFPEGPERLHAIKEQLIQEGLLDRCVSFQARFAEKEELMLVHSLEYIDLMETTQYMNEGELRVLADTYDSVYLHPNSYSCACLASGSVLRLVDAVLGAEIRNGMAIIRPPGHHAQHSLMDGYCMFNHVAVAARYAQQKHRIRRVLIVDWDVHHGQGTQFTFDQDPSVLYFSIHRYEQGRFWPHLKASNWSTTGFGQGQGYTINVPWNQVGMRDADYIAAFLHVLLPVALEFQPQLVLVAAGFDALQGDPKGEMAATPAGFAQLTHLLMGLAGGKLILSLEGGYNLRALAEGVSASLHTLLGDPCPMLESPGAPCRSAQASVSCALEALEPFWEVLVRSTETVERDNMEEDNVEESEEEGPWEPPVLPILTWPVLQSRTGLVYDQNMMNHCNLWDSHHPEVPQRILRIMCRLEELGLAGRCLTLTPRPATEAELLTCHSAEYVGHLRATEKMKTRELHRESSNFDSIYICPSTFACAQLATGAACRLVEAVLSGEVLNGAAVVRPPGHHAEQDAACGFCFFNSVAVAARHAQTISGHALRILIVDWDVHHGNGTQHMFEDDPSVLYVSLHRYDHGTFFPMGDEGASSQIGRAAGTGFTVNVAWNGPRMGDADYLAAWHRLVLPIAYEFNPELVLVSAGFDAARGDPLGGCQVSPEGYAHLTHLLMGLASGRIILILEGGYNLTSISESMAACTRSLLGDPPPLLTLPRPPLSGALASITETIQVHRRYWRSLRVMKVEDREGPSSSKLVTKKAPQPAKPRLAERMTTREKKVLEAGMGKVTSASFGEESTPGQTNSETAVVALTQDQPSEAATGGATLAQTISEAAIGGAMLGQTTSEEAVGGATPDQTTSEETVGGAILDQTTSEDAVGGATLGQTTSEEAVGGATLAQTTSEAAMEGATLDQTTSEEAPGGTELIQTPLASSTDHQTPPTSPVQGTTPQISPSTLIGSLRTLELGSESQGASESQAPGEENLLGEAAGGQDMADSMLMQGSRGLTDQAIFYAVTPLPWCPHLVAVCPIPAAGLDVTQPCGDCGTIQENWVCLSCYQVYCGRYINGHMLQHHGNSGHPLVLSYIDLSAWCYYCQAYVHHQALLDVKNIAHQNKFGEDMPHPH

SMILES | IC50 (recombinant human HDAC6) | IC50 (recombinant human HDAC1) | TubAc SH-SY5Y cells fold increase of the ratio of acetylated tubulin and total tubulin towards control (SH-SY5Y cells)
FC(F)c1nnc(-c2ccc(Cn3cc(-c4ccc(NC5=NCCN5)cc4)nn3)cc2)o1 [Compound 1-A] | 14 nM | > 100000 nM | 2 fold
Nc1nc2ccc(-c3cn(Cc4ccc(-c5nnc(C(F)F)o5)cc4F)nn3)cc2s1 [Compound 2-A] | – | > 100000 nM | 6.2 fold
FC(F)c1nnc(-c2ccc(Cn3cc(-c4ccccc4)nn3)nc2)o1 [Compound 13-A] | 32 nM | > 100000 nM | –
Fc1ccccc1-c1cn(Cc2ccc(-c3nnc(C(F)F)o3)cn2)nn1 [Compound 14-A] | 22 nM | > 100000 nM | 6.3 fold
FC(F)c1nnc(-c2ccc(Cn3cc(-c4ccccn4)nn3)nc2)o1 [Compound 20-A] | 60 nM | > 100000 nM | –
Nc1nc2ccc(-c3cn(Cc4ccc(-c5nnc(C(F)F)o5)cc4)nn3)cc2s1 [Compound 32-A] | 26 nM | > 100000 nM | 6.3 fold
Nc1nc2ccc(-c3cn(Cc4ccc(-c5nnc(C(F)F)o5)cc4Cl)nn3)cc2s1 [Compound 37-A] | 61 nM | > 100000 nM | 6 fold
Nc1nc2ccc(-c3cn(Cc4ccc(-c5nnc(C(F)F)o5)cn4)nn3)cc2s1 [Compound 38-A] | 8 nM | > 100000 nM | 10 fold
Nc1nc2ccc(C3CN(Cc4ccc(C(=O)NNC(=O)C(F)F)s4)N=N3)cc2s1 (stereo not drawn) [Compound 48-A] | 7 nM | > 100000 nM | 15.7 fold
